According to paper PMC8607422, “Development of a novel TLR8 agonist for cancer immunotherapy” (Molecular Biomedicine, 2020):

Assays:
[1] = tested on: EMT6 mouse breast cancer cells; assay: EMT6 mouse syngeneic breast cancer model; type: in vivo; settings: AZD-1775 30 mg/kg po bid
Method: All the animal experiments were conducted following Association for Assessment and Accreditation of Laboratory Animal Care (AAALAC)‘s guideline. The animal protocols were approved by the Institutional Animal Care and Use Committee (IACUC). Cell lines were purchased from credible vendors including ATCC. After tumor cell inoculation, the animals were checked daily for morbidity and mortality. At the time of routine monitoring, the animals were checked for any effects of tumor growth and treatment on the animals’ well-being such as mobility, food and water consumption, body weight gain/loss, matting and any other abnormalities. Clinical observations were recorded. Tumor volumes were measured twice a week in two dimensions using a caliper and the volume was expressed in mm^3 using the formula: V = 0.5 a × b^2 where a and b are the long and short diameters of the tumor, respectively. The procedures of dosing as well as tumor and body weight measurement were conducted in a laminar flow cabinet.
For EMT6 experiments, EMT6 mouse breast cancer cells were cultured in vitro as a monolayer culture in RPMI1640 medium supplemented with 10% fetal bovine serum and 1% penicillin/streptomycin at 37°C in an atmosphere of 5% CO2 in air. […] The cells growing in the exponential growth phase were harvested and counted for tumor inoculation. […]

[2] = target: T1, hTLR7 (Homo sapiens, UniProt Q9NYK1); assay: HEK-Blue hTLR7 SEAP reporter agonist assay; type: cell-based; settings: positive control
T1 construct: host or cells: HEK-Blue hTLR7
T1 sequence (Q9NYK1 27-1049): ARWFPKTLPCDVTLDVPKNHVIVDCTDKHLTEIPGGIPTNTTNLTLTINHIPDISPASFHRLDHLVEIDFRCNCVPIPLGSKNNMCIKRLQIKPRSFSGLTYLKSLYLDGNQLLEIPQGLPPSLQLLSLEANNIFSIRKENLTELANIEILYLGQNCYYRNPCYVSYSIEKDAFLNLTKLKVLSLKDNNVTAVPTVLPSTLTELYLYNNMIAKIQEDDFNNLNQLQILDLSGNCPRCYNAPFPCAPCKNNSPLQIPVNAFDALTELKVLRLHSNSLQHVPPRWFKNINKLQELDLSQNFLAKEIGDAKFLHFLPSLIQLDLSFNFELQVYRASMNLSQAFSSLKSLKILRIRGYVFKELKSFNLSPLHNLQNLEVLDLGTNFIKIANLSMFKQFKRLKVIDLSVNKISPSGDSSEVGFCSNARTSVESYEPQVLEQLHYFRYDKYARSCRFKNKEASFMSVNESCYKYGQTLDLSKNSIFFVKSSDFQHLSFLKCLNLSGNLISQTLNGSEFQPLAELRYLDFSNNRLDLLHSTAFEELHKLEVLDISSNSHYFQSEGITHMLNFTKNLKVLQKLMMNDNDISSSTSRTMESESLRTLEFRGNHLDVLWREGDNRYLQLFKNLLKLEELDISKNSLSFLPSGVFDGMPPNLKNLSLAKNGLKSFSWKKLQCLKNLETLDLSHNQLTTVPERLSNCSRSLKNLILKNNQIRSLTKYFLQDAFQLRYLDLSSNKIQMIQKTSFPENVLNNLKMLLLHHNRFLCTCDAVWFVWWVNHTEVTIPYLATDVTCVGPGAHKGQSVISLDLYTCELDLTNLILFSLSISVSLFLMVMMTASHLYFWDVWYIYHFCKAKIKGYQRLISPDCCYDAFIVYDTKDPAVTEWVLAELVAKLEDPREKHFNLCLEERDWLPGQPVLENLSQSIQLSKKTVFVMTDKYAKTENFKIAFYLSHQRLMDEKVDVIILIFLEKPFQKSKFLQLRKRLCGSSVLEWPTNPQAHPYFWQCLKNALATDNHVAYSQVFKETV
Source text: HEK-Blue™ hTLR4, 7, 8 and 9 cell lines were purchased from InvivoGen (Hong Kong). The cells express the human TLR gene and NF-κB/AP-1-inducible SEAP (secreted embryonic alkaline phosphatase) reporter gene. SEAP levels produced upon TLR stimulation can be determined by QUANTI-Blue™. In the cell-based assay, the main reagents used were QUANTI-Blue™ (InvivoGen) and ATPlite 1 Step (Perkin Elmer). The main instruments used were the microplate reader SpectraMax 340PC (Molecular Device) and Envision (Perkin Elmer). Motolimod and DN052 were synthesized in house. […] The compounds were in 10 mM stock solution in DMSO and stored at − 20°C. The compounds were serially diluted in the concentration range from 0.5 nM to 15 μM (up to 50 μM in the hTLR4, hTLR7 and hTLR9 assays) and added to 96-well plates. DMSO was used as the negative control. LPS-EK, R848, motolimod and ODN2006 were used as the positive control for TLR4, 7, 8 and 9, respectively. The cells were cultured and treated with the compounds at 37°C, 5%CO2 for 24 h. […] After 1.5 h of incubation, the optical density was measured using the spectrophotometer at 650 nm in the microplate reader of SpectraMax 340PC. The cell viability of each well was determined using ATPlite 1 Step following the manufacturer’s instruction. The luminescence signal in each well of plates was measured in the microplate reader of Envision.

Row | SMILES | response of EMT6 model to single agent [1] | activity of positive control in TLR7 assay [2]
1 | C=CCn1c(=O)c2cnc(Nc3ccc(N4CCN(C)CC4)cc3)nc2n1-c1cccc(C(C)(C)O)n1 [AZD-1775] | largely resistant | –
2 | CCOCc1nc2c(N)nc3ccccc3c2n1CC(C)(C)O [R848] | – | active
